Experimental data: patent publication US6313090A, “Methods for treating parasitic infection using thiopeptides” (The United States of America as represented by the …, priority 2000, dated 2001)
Read-outs that look alike come from different tables or passages of the source.

Tested on: C. parvum GCH1 oocysts
Experiment: Intact C. parvum oocyst assay on MDBKF5D2 cell monolayers, immunofluorescence
Type: cell-based
Conditions: for inhibition at 800 µg/mL / inhibition at 100 µg/mL / inhibition at 200 µg/mL / inhibition at 400 µg/mL / inhibition at 1 µg/mL / inhibition at 10 µg/mL / inhibition at 0.1 µg/mL: Cryptosporidium parvum
Protocol: In vitro doses of drugs. Thiostrepton (Calbiochem) was dissolved in sterile complete Dulbecco's Modified Eagle Medium (DMEM) supplemented with dimethyl sulfoxide (DMSO) at 0.2% and tested at concentrations of 800, 400, 200, and 100, 10, 1 and 0.1 μg/ml.
(§1) Intact C. parvum oocyst asset 3.0×10^4 C. parvum GCH1 oocysts per well were incubated in the above-mentioned concentrations of drug at 37° C. (8% CO2) on confluent MDBKF5D2 cell monolayers in 96 well microtiter plates. The level of infection in each well was determined and analyzed by immunofluorescence assay at 48 hours, using C. parvum sporozoite rabbit anti-serum (0.1%) and fluorescein-conjugated goat anti-rabbit antibody (1.0%). Percent inhibition was calculated by subtracting the mean parasite/drug from the mean parasitelmedium, divided by the mean parasite/medium, all of which was multiplied by 100. The analysis was performed using MCID and an inverted microscope.
In vitro doses of drugs. Thiostrepton (Calbiochem) and Phavic (NTZ) were dissolved in sterile complete Dulbecco's Modified Eagle Medium (DMEM) supplemented with dimethyl sulfoxide (DMSO) at 0.2% and tested at concentrations of 800, 400, 200, and 100 μg/ml. NTZ was tested at concentrations of 100, 10, 1 and 0.1 μg/ml. Paromomycin (Sigma) was dissolved in DMEM and tested at concentrations of 2000, 1000, 500 and 250 μg/ml.
as §1, with “assay .” for “asset”, “plates. For some monolayers, the oocysts were incubated in DMEM on the cell monolayers for four hours, at which time the monolayers were washed and then drug was added to the wells.” for “plates.”, “parasite/medium,” for “parasitelmedium,”
In vitro doses of drugs. Thiostrepton (Calbiochem), Phavic (NTZ) were dissolved in sterile complete Dulbecco's Modified Eagle Medium (DMEM) supplemented with dimethyl sulfoxide (DMSO) at 0.2%. Thiostrepton was tested at a concentration of 800 μg/ml. NTZ was tested at a concentration of 10 μg/ml. Paromomycin was dissolved in DMEM and tested at 2000 μg/ml. Cell monolayers were infected and washed, followed by the addition of drug at time intervals of 0, 2, 4, 8 and 24 hours.
as §1, with “assay.” for “asset”, “analyze” for “analyzed”, “parasite/medium,” for “parasitelmedium,”

Compound: C=C(NC(=O)C(=C)NC(=O)c1csc(C2=N[C@@H]3c4csc(n4)[C@H]4NC(=O)c5csc(n5)[C@H]([C@](C)(O)[C@@H](C)O)NC(=O)[C@H]5CSC(=N5)/C(=C/C)NC(=O)[C@H]([C@@H](C)O)NC(=O)c5csc(n5)[C@]3(CC2)NC(=O)[C@H](C)NC(=O)C(=C)NC(=O)[C@H](C)NC(=O)[C@H]([C@@H](C)CC)N[C@@H]2C=Cc3c([C@H](C)O)cc(nc3[C@H]2O)C(=O)O[C@@H]4C)n1)C(N)=O [Thiostrepton, thiostrepton]
- inhibition at 800 µg/mL (0 h, read-out: Inhibition Percent, Table 5, 800 μg/ml, drug added at 0 hrs): 91.2%
- inhibition at 800 µg/mL (0 h, read-out: Inhibition Score, Table 5, 800 μg/ml, drug added at 0 hrs): 91 to 100%
- inhibition at 800 µg/mL (2 h, read-out: Inhibition Percent, Table 5, 800 μg/ml, drug added at 2 hrs): 91.8%
- inhibition at 800 µg/mL (2 h, read-out: Inhibition Score, Table 5, 800 μg/ml, drug added at 2 hrs): 91 to 100%
- inhibition at 100 µg/mL (4 h, read-out: Inhibition Percent, Table 4 Washed at 4 hours, 100 μg/ml): 61%
- inhibition at 200 µg/mL (4 h, read-out: Inhibition Percent, Table 4 Washed at 4 hours, 200 μg/ml): 78.7%
- inhibition at 400 µg/mL (4 h, read-out: Inhibition Percent, Table 4 Washed at 4 hours, 400 μg/ml): 88.2%
- inhibition at 800 µg/mL (4 h, read-out: Inhibition Percent, Table 4 Washed at 4 hours, 800 μg/ml): 87.4%
- inhibition at 800 µg/mL (4 h, read-out: Inhibition Percent, Table 5, 800 μg/ml, drug added at 4 hrs): 84.5%
- inhibition at 100 µg/mL (4 h, read-out: Inhibition Score, Table 4 Washed at 4 hours, 100 μg/ml): 56 to 70%
- inhibition at 200 µg/mL (4 h, read-out: Inhibition Score, Table 4 Washed at 4 hours, 200 μg/ml): 71 to 90%
- inhibition at 400 µg/mL (4 h, read-out: Inhibition Score, Table 4 Washed at 4 hours, 400 μg/ml): 71 to 90%
- inhibition at 800 µg/mL (4 h, read-out: Inhibition Score, Table 4 Washed at 4 hours, 800 μg/ml): 71 to 90%
- inhibition at 800 µg/mL (4 h, read-out: Inhibition Score, Table 5, 800 μg/ml, drug added at 4 hrs): 71 to 90%
- inhibition at 800 µg/mL (8 h, read-out: Inhibition Percent, Table 5, 800 μg/ml, drug added at 8 hrs): 84.9%
- inhibition at 800 µg/mL (8 h, read-out: Inhibition Score, Table 5, 800 μg/ml, drug added at 8 hrs): 71 to 90%
- inhibition at 800 µg/mL (24 h, read-out: Inhibition Percent, Table 5, 800 μg/ml, drug added at 24 hrs): 75%
- inhibition at 800 µg/mL (24 h, read-out: Inhibition Score, Table 5, 800 μg/ml, drug added at 24 hrs): 71 to 90%
- inhibition at 1 µg/mL (read-out: Inhibition Percent, Table 1, 1 μg/ml): < 0%
- inhibition at 10 µg/mL (read-out: Inhibition Percent, Table 1, 10 μg/ml): 12.4%
- inhibition at 100 µg/mL (read-out: Inhibition Percent, Table 1, 100 μg/ml): 29.4%
- inhibition at 0.1 µg/mL (read-out: Inhibition Percent, Table 1, .1 μg/ml): < 0%
- inhibition at 100 µg/mL (read-out: Inhibition Percent, Table 2, 100 μg/ml): 22.7%
- inhibition at 200 µg/mL (read-out: Inhibition Percent, Table 2, 200 μg/ml): 51.8%
- inhibition at 400 µg/mL (read-out: Inhibition Percent, Table 2, 400 μg/ml): 72.6%
- inhibition at 800 µg/mL (read-out: Inhibition Percent, Table 2, 800 μg/ml): 87.8%
- inhibition at 100 µg/mL (read-out: Inhibition Percent, Table 3 Unwashed, 100 μg/ml): 35.4%
- inhibition at 200 µg/mL (read-out: Inhibition Percent, Table 3 Unwashed, 200 μg/ml): 68.2%
- inhibition at 400 µg/mL (read-out: Inhibition Percent, Table 3 Unwashed, 400 μg/ml): 87.4%
- inhibition at 800 µg/mL (read-out: Inhibition Percent, Table 3 Unwashed, 800 μg/ml): 91.4%
- inhibition at 100 µg/mL (read-out: Inhibition Percent, Table 6, 100 μg/ml): 36.5%
- inhibition at 200 µg/mL (read-out: Inhibition Percent, Table 6, 200 μg/ml): 65.7%
- inhibition at 400 µg/mL (read-out: Inhibition Percent, Table 6, 400 μg/ml): 79%
- inhibition at 800 µg/mL (read-out: Inhibition Percent, Table 6, 800 μg/ml): 83.7%
- inhibition at 1 µg/mL (read-out: Inhibition Score, Table 1, 1 μg/ml): 0 to 30%
- inhibition at 10 µg/mL (read-out: Inhibition Score, Table 1, 10 μg/ml): 0 to 30%
- inhibition at 100 µg/mL (read-out: Inhibition Score, Table 1, 100 μg/ml): 0 to 30%
- inhibition at 0.1 µg/mL (read-out: Inhibition Score, Table 1, .1 μg/ml): 0 to 30%
- inhibition at 100 µg/mL (read-out: Inhibition Score, Table 2, 100 μg/ml): 0 to 30%
- inhibition at 200 µg/mL (read-out: Inhibition Score, Table 2, 200 μg/ml): 31 to 55%
- inhibition at 400 µg/mL (read-out: Inhibition Score, Table 2, 400 μg/ml): 71 to 90%
- inhibition at 800 µg/mL (read-out: Inhibition Score, Table 2, 800 μg/ml): 71 to 90%
- inhibition at 100 µg/mL (read-out: Inhibition Score, Table 3 Unwashed, 100 μg/ml): 31 to 55%
- inhibition at 200 µg/mL (read-out: Inhibition Score, Table 3 Unwashed, 200 μg/ml): 56 to 70%
- inhibition at 400 µg/mL (read-out: Inhibition Score, Table 3 Unwashed, 400 μg/ml): 71 to 90%
- inhibition at 800 µg/mL (read-out: Inhibition Score, Table 3 Unwashed, 800 μg/ml): 91 to 100%
- inhibition at 100 µg/mL (read-out: Inhibition Score, Table 6, 100 μg/ml): 31 to 55%
- inhibition at 200 µg/mL (read-out: Inhibition Score, Table 6, 200 μg/ml): 56 to 70%
- inhibition at 400 µg/mL (read-out: Inhibition Score, Table 6, 400 μg/ml): 71 to 90%
- inhibition at 800 µg/mL (read-out: Inhibition Score, Table 6, 800 μg/ml): 71 to 90%
- Parasite Count (Table 1, 1 μg/ml): 1193.19
- Parasite Count (Table 1, 10 μg/ml): 909.25
- Parasite Count (Table 1, 100 μg/ml): 732.31
- Parasite Count (Table 1, .1 μg/ml): 1052.13
- Parasite Count (Table 2, 100 μg/ml): 943.31
- Parasite Count (Table 2, 200 μg/ml): 587.81
- Parasite Count (Table 2, 400 μg/ml): 334.06
- Parasite Count (Table 2, 800 μg/ml): 149.25
- Parasite Count (Table 3 Unwashed, 100 μg/ml): 795.63
- Parasite Count (Table 3 Unwashed, 200 μg/ml): 391.19
- Parasite Count (Table 3 Unwashed, 400 μg/ml): 154.88
- Parasite Count (Table 3 Unwashed, 800 μg/ml): 106.06
- Parasite Count (Table 4 Washed at 4 hours, 100 μg/ml): 543.88
- Parasite Count (Table 4 Washed at 4 hours, 200 μg/ml): 297.19
- Parasite Count (Table 4 Washed at 4 hours, 400 μg/ml): 164.31
- Parasite Count (Table 4 Washed at 4 hours, 800 μg/ml): 176.31
- Parasite Count (Table 5, 800 μg/ml, drug added at 0 hrs): 112.44
- Parasite Count (Table 5, 800 μg/ml, drug added at 2 hrs): 104.19
- Parasite Count (Table 5, 800 μg/ml, drug added at 4 hrs): 196.81
- Parasite Count (Table 5, 800 μg/ml, drug added at 8 hrs): 192.56
- Parasite Count (Table 5, 800 μg/ml, drug added at 24 hrs): 318.25
- Parasite Count (Table 6, 100 μg/ml): 871.25
- Parasite Count (Table 6, 200 μg/ml): 470.69
- Parasite Count (Table 6, 400 μg/ml): 288.13
- Parasite Count (Table 6, 800 μg/ml): 223.13
- activity against C. parvum in vitro (concentrations of 200 and above, Tables 1 and 2): good activity
- effectiveness compared with PRM (in vitro, summary statement): more effective than PRM at about one-fifth the dose
- activity when drug is added 24 hours after infection (intracellular stages only): still highly inhibitory
